# Measurements as given in paper PMC6152678, “In Vitro Comparative Study of the Inhibitory Effects of Mangiferin and Its Aglycone Norathyriol towards UDP-Glucuronosyl Transferase (UGT) Isoforms” (Molecules : A Journal of Synthetic Chemistry and Natural …, 2017).
# Columns and labels:
# UGT1A8 = target: T1, UGT1A8 (Homo sapiens, UniProt Q9HAW9); test: Inhibition of recombinant UGT-catalyzed 4-MU glucuronidation; format: biochemical; conditions: pH 7.4, probe 4-methylumbelliferone (4-MU), 750 μM, 100 μM compound, 4-MU probe substrate, negative = activation
# T1 construct: purchased BD Gentest Corp. (Woburn, MA, USA); host or cells: baculovirus-infected insect cells
# T1 sequence (Q9HAW9 26-530): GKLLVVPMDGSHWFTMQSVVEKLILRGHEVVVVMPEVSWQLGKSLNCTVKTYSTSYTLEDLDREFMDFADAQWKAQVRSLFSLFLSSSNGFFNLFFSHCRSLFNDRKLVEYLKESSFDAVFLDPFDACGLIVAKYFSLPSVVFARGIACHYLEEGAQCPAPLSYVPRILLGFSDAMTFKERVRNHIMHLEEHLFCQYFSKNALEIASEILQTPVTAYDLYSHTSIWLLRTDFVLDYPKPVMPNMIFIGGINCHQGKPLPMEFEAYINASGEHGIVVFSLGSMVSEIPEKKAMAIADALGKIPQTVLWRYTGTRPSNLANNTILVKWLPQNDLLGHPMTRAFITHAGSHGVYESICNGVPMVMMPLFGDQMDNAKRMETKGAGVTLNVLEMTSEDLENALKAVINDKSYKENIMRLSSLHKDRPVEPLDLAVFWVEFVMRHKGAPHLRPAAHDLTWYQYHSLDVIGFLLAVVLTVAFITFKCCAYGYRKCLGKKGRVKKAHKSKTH
# Experimental: (§1) Sigma-Aldrich (St Louis, MO, USA) provided the following constituents in the incubation mixture: 4-methylumbelliferone (4-MU), 4-methylumbelliferone-β-D-glucuronide (4-MUG), Tris-HCl, 7-hydroxycoumarin, and uridine-diphosphoglucuronic acid (UDPGA) (trisodium salt). All other compounds were of high-performance liquid chromatography (HPLC) grade or of the highest grade commercially available. For enzyme sources, recombinant UGT isoforms expressed in baculovirus-infected insect cells were purchased from BD Gentest Corp. (Woburn, MA, USA), including UGT1A1, 1A3, 1A6, 1A7, 1A8, 1A9, 1A10, 2B4, 2B7, 2B15, and 2B17.
# (§2) 4-MU, a nonspecific probe substrate for all the UGT isoforms, was employed to investigate the inhibition of MEF and NIR towards the activity of UGT isoforms. The incubation and analytical methods have been previously described. […] MEF and NIR were dissolved in the DMSO to make a stock solution of 20 mM, and various concentrations of working solutions were prepared through dilution with DMSO. 4-MU was used as a non-selective substrate of UGTs. There was a 5-min pre-incubation step at 37 °C before the reaction was initiated by the addition of UDPGA. 4-MU and inhibitors were previously dissolved in DMSO, and the total concentration of DMSO was 1%. The reactions were continued at 37 °C for 120 min for UGT1A1, UGT1A3, UGT1A10, UGT2B4, UGT2B7, UGT2B15 and UGT2B17, 30 min for UGT1A6, UGT1A7, UGT1A8, and UGT1A9, respectively. Reactions were terminated by the addition of 100 μL acetonitrile with 7-hydroxycoumarin (100 μM) as internal standard. The incubation mixtures were then centrifuged at 12,000 r/min for 10 min. 2 μL supernatant was injected into the UPLC system for analysis. An ACQUITY UPLC System (Waters, Milford, MA, USA) equipped with UV detector was used to analyze the samples, and the separation of all the compounds were carried out using a ACQUITY UPLC® BEH C18 (2.1 × 100 mm, 1.7 μm Waters) at a flow rate of 0.2 mL/min and UV detector at 316 nm. The mobile phase was consisted of ultrapure water containing 0.5% formic acid (A) and acetonitrile (B). The following gradient condition was used: 0–3.5 min, 10–65% B; 3.5–4.0 min, 65% B; 4.0–9.0 min, 10% B. To calculate the standard curve 0.1–100 μM of 4-MUG was used through drawing the peak area ration of 4-MUG/internal standard towards the concentration range of 4-MUG. The curve was linear over this concentration range, with an r^2 value > 0.99.
# (§3) The inhibition type and Kinetics were determined for the inhibition of NTR towards UGT1A3, UGT1A7 and UGT1A9. The glucuronidation velocity of 4-MU was determined at multiple concentrations of 4-MU and NTR. Dixon and Lineweaver–Burk plots were employed to determine the inhibition type, and the second plot of the slopes from the Lineweaver–Burk plot versus the compound concentrations was utilized to calculate the Ki value. The determination of IC50 was calculated using Probit analysis in SPSS11.5 (SPSS, Chicago, IL, USA). The Student’s t-test was adopted at a significance level of p < 0.05 to determine statistically significant differences among experimental groups.
# UGT1A7 = target: T2, UGT1A7 (Homo sapiens, UniProt Q9HAW7); test: as above; format: biochemical; conditions: for inhibition at 30 min, 100 µM: human, pH 7.4, probe 4-methylumbelliferone (4-MU), 30 μM, 100 μM compound, 4-MU probe substrate, negative = activation
# T2 construct: purchased BD Gentest Corp. (Woburn, MA, USA); host or cells: baculovirus-infected insect cells
# T2 sequence (Q9HAW7 26-530): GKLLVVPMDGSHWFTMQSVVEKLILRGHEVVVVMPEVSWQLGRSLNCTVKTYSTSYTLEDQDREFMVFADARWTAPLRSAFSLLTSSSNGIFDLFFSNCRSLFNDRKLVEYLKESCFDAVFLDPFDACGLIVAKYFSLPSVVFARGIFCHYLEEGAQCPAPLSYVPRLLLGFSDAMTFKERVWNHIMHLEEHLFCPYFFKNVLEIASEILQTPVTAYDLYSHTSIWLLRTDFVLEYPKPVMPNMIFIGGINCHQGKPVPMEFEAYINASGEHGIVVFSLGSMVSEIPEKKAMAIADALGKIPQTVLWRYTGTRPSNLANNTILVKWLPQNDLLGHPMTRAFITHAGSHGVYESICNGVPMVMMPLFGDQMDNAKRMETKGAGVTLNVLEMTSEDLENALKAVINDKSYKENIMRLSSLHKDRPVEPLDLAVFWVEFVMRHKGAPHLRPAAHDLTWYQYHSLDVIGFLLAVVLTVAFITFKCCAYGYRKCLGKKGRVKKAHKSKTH
# Experimental: as §1, §2, §3
"inhibition at 30 min, 100 µM (UGT1A8) [%]","inhibition at 30 min, 100 µM (UGT1A7) [%]","IC50 (UGT1A7; 4-MU glucuronidation, Probit analysis, read-out: IC50 towards UGT1A7) [µM]",inhibition type towards UGT1A7 (UGT1A7; Dixon plot and Lineweaver-Burk plot),"Ki (UGT1A7; second plot of Lineweaver-Burk slopes, read-out: inhibition constant (Ki) towards UGT1A7) [µM]",SMILES
-70.9,26.7,–,–,–,"O=c1c2cc(O)c(O)cc2oc2cc(O)c([C@@H]3O[C@H](CO)[C@@H](O)[C@H](O)[C@H]3O)c(O)c12 [MGF, 1,3,6,7-tetrahydroxyxanthone-C-2-β-D-glucoside]"
57,94.9,4.4,competitively inhibited,2,"O=c1c2cc(O)c(O)cc2oc2cc(O)cc(O)c12 [NTR, 1,3,6,7-tetrahydroxyxanthone]"
